According to US20220348565A1, “PHARMACEUTICAL COMPOUNDS” (SENTINEL ONCOLOGY LIMITED, priority 2019, published 2022):

Experiments:
Test in all cases: DiscoverX KinomeScreen kinase selectivity competition binding assay
[1] = biological target: T1, panel of ninety-seven kinases (Homo sapiens, UniProt P24941); conditions: CDK2; read-out: % Ctrl @ 3 μM
T1 construct: purchased DiscoverX; host or cells: T7 phage in E. coli (BL21-derived) for most kinases; HEK-293 for the rest
In short: (§1)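 Site-directed competition binding: kinase (T7 phage-tagged or HEK-293-expressed, DNA-tagged) captured on immobilized biotinylated ligand beads, with compound at 3000 nM. Bound kinase eluted and quantified by qPCR. Reported as % Ctrl, with DMSO as 100% and control compound as 0%.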

[2] = biological target: T2, panel of ninety-seven kinases (Homo sapiens, UniProt P36888); conditions: FLT3; read-out: % Ctrl @ 3 μM
T2 construct: purchased DiscoverX; host or cells: T7 phage in E. coli (BL21-derived) for most kinases; HEK-293 for the rest
In short: as §1

[3] = biological target: T3, panel of ninety-seven kinases (Homo sapiens, UniProt O14757); conditions: CHEK1; read-out: % Ctrl @ 3 μM
T3 construct: purchased DiscoverX; host or cells: T7 phage in E. coli (BL21-derived) for most kinases; HEK-293 for the rest
In short: as §1

[4] = biological target: T4, panel of ninety-seven kinases (Homo sapiens, UniProt P43403); conditions: ZAP70; read-out: % Ctrl @ 3 μM
T4 construct: purchased DiscoverX; host or cells: T7 phage in E. coli (BL21-derived) for most kinases; HEK-293 for the rest
In short: as §1

[5] = biological target: T5, panel of ninety-seven kinases (Homo sapiens, UniProt P08069); conditions: IGF1R; read-out: % Ctrl @ 3 μM
T5 construct: purchased DiscoverX; host or cells: T7 phage in E. coli (BL21-derived) for most kinases; HEK-293 for the rest
In short: as §1

[6] = biological target: T6, panel of ninety-seven kinases (Homo sapiens, UniProt Q13873); conditions: BMPR2; read-out: % Ctrl @ 3 μM
T6 construct: purchased DiscoverX; host or cells: T7 phage in E. coli (BL21-derived) for most kinases; HEK-293 for the rest
In short: as §1

[7] = biological target: T7, panel of ninety-seven kinases (Homo sapiens, UniProt Q8NI60); conditions: CABC1; read-out: % Ctrl @ 3 μM
T7 construct: purchased DiscoverX; host or cells: T7 phage in E. coli (BL21-derived) for most kinases; HEK-293 for the rest
In short: as §1

[8] = biological target: T8, panel of ninety-seven kinases (Homo sapiens, UniProt Q02750); conditions: MAP2K1; read-out: % Ctrl @ 3 μM
T8 construct: purchased DiscoverX; host or cells: T7 phage in E. coli (BL21-derived) for most kinases; HEK-293 for the rest
In short: as §1

[9] = biological target: T9, panel of ninety-seven kinases (Homo sapiens, UniProt P49137); conditions: MAPKAPK2; read-out: % Ctrl @ 3 μM
T9 construct: purchased DiscoverX; host or cells: T7 phage in E. coli (BL21-derived) for most kinases; HEK-293 for the rest
In short: as §1

[10] = biological target: T10, panel of ninety-seven kinases (Homo sapiens, UniProt O15111); conditions: CHUK; read-out: % Ctrl @ 3 μM
T10 construct: purchased DiscoverX; host or cells: T7 phage in E. coli (BL21-derived) for most kinases; HEK-293 for the rest
In short: as §1

[11] = biological target: T11, panel of ninety-seven kinases (Homo sapiens, UniProt P17612); conditions: PRKACA; read-out: % Ctrl @ 3 μM
T11 construct: purchased DiscoverX; host or cells: T7 phage in E. coli (BL21-derived) for most kinases; HEK-293 for the rest
In short: as §1

[12] = biological target: T12, panel of ninety-seven kinases (Homo sapiens, UniProt P42336); conditions: PIK3CA; read-out: % Ctrl @ 3 μM
T12 construct: purchased DiscoverX; host or cells: T7 phage in E. coli (BL21-derived) for most kinases; HEK-293 for the rest
In short: as §1

[13] = biological target: T13, panel of ninety-seven kinases (Homo sapiens, UniProt P36897); conditions: TGFBR1; read-out: % Ctrl @ 3 μM
T13 construct: purchased DiscoverX; host or cells: T7 phage in E. coli (BL21-derived) for most kinases; HEK-293 for the rest
In short: as §1

[14] = biological target: T14, panel of ninety-seven kinases (Homo sapiens, UniProt P48736); conditions: PIK3CG; read-out: % Ctrl @ 3 μM
T14 construct: purchased DiscoverX; host or cells: T7 phage in E. coli (BL21-derived) for most kinases; HEK-293 for the rest
In short: as §1

[15] = biological target: T15, panel of ninety-seven kinases (Homo sapiens, UniProt Q9HBH9); conditions: MKNK2; read-out: % Ctrl @ 3 μM
T15 construct: purchased DiscoverX; host or cells: T7 phage in E. coli (BL21-derived) for most kinases; HEK-293 for the rest
In short: as §1

[16] = biological target: T16, panel of ninety-seven kinases (Homo sapiens, UniProt Q9BUB5); conditions: MKNK1; read-out: % Ctrl @ 3 μM
T16 construct: purchased DiscoverX; host or cells: T7 phage in E. coli (BL21-derived) for most kinases; HEK-293 for the rest
In short: as §1

[17] = biological target: T17, panel of ninety-seven kinases (Homo sapiens, UniProt P29317); conditions: EPHA2; read-out: % Ctrl @ 3 μM
T17 construct: purchased DiscoverX; host or cells: T7 phage in E. coli (BL21-derived) for most kinases; HEK-293 for the rest
In short: as §1

[18] = biological target: T18, panel of ninety-seven kinases (Homo sapiens, UniProt P04626); conditions: ERBB2; read-out: % Ctrl @ 3 μM
T18 construct: purchased DiscoverX; host or cells: T7 phage in E. coli (BL21-derived) for most kinases; HEK-293 for the rest
In short: as §1

[19] = biological target: T19, panel of ninety-seven kinases (Homo sapiens, UniProt Q9H4B4); conditions: PLK3; read-out: % Ctrl @ 3 μM
T19 construct: purchased DiscoverX; host or cells: T7 phage in E. coli (BL21-derived) for most kinases; HEK-293 for the rest
In short: as §1

[20] = biological target: T20, panel of ninety-seven kinases (Homo sapiens, UniProt O96013); conditions: PAK4; read-out: % Ctrl @ 3 μM
T20 construct: purchased DiscoverX; host or cells: T7 phage in E. coli (BL21-derived) for most kinases; HEK-293 for the rest
In short: as §1

[21] = biological target: T21, panel of ninety-seven kinases (Homo sapiens, UniProt Q02763); conditions: TEK; read-out: % Ctrl @ 3 μM
T21 construct: purchased DiscoverX; host or cells: T7 phage in E. coli (BL21-derived) for most kinases; HEK-293 for the rest
In short: as §1

T19 sequence (Q9H4B4 whole entry): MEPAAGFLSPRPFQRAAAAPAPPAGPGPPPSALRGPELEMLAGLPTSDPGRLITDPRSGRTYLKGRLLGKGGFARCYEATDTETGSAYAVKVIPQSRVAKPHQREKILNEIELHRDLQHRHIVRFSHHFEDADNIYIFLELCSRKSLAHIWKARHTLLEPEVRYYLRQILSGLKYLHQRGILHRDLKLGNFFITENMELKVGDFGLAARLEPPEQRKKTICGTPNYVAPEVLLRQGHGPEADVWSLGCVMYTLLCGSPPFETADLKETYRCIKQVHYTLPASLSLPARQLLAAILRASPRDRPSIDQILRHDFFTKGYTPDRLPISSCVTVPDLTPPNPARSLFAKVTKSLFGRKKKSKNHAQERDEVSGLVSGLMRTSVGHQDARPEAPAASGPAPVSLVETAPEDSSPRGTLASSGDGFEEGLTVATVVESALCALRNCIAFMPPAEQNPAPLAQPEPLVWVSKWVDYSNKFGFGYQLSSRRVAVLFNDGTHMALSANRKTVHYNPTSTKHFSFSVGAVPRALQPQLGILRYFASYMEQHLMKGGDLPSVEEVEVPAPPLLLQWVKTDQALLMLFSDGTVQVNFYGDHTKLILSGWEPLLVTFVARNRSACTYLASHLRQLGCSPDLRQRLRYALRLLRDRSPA
T5 sequence (P08069 31-1367): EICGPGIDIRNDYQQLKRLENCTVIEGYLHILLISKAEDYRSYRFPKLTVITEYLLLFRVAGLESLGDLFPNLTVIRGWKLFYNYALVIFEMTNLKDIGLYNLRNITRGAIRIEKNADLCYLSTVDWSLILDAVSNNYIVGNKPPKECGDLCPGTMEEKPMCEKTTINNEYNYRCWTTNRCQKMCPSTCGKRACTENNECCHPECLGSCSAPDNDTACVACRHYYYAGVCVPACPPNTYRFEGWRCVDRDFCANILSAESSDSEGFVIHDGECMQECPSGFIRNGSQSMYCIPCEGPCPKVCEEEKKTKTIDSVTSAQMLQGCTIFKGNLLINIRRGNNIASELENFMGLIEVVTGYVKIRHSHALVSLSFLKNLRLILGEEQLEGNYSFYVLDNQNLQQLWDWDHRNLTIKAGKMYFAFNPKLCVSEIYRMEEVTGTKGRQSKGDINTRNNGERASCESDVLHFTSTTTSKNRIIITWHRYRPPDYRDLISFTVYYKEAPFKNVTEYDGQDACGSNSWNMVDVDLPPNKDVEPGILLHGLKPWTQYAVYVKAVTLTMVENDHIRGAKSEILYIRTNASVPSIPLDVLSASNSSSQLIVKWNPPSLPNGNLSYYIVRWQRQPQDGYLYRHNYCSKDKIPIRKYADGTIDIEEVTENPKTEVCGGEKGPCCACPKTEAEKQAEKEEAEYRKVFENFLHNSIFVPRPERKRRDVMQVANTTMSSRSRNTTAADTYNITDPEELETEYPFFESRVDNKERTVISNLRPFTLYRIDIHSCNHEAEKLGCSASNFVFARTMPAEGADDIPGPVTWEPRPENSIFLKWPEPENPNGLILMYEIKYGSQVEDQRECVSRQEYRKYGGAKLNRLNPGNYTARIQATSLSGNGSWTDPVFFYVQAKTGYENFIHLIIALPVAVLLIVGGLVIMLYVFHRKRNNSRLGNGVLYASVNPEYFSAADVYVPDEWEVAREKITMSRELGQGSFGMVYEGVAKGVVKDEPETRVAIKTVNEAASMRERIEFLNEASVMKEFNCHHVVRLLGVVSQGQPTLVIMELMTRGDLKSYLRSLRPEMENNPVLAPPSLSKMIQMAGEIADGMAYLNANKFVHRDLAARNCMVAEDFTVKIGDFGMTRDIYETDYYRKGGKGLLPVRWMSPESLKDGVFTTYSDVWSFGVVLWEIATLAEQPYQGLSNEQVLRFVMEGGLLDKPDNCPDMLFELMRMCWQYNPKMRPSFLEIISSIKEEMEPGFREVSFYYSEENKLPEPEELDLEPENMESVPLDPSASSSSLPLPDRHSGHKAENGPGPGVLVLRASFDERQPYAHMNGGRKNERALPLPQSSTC
T7 sequence (Q8NI60 163-647): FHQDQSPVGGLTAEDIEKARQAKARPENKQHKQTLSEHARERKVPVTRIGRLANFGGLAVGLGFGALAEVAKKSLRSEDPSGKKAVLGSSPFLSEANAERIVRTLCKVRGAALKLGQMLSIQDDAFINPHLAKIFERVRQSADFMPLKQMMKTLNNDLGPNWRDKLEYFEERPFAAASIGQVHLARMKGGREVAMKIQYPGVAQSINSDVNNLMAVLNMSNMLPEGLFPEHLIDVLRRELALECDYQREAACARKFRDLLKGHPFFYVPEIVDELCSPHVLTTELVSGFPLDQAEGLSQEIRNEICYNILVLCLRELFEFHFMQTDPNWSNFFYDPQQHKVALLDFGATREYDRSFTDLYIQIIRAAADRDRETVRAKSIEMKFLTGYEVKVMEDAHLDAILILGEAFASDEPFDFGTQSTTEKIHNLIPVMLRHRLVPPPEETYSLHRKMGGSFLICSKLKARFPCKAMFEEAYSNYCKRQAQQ
T20 sequence (O96013 whole entry): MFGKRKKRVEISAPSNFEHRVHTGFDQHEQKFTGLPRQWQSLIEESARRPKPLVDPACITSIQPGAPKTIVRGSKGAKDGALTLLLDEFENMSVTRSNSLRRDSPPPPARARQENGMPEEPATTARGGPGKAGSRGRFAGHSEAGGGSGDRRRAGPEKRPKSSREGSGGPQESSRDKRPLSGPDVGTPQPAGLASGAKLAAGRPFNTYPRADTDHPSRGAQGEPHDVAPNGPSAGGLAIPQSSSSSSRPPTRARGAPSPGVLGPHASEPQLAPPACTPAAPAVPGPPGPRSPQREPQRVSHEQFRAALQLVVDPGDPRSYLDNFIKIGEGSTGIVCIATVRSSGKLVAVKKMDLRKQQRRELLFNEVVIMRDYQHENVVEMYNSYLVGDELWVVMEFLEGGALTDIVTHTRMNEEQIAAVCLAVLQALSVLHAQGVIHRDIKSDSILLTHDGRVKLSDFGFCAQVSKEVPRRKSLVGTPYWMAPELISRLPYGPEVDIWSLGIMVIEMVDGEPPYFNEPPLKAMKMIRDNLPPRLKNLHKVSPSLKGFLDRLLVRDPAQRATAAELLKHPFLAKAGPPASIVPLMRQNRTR
T10 sequence (O15111 whole entry): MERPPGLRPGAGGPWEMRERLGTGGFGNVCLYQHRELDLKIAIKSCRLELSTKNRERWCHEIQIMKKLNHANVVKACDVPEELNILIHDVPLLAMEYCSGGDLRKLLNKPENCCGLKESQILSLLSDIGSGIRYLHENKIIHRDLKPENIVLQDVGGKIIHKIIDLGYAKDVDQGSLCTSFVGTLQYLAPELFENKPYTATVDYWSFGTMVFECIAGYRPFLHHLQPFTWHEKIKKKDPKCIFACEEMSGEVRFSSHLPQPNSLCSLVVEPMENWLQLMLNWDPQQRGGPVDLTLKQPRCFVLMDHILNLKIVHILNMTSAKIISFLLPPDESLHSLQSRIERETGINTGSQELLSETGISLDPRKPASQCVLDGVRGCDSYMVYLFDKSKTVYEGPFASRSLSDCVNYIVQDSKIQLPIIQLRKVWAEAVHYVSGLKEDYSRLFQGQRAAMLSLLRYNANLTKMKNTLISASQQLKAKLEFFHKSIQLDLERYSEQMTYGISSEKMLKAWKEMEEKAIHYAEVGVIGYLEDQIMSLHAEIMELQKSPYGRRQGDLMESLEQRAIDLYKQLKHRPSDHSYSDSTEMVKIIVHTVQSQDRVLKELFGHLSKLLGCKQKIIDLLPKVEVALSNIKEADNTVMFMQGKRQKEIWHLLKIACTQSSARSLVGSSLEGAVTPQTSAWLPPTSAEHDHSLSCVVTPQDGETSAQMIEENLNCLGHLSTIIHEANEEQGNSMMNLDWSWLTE
T3 sequence (O14757 whole entry): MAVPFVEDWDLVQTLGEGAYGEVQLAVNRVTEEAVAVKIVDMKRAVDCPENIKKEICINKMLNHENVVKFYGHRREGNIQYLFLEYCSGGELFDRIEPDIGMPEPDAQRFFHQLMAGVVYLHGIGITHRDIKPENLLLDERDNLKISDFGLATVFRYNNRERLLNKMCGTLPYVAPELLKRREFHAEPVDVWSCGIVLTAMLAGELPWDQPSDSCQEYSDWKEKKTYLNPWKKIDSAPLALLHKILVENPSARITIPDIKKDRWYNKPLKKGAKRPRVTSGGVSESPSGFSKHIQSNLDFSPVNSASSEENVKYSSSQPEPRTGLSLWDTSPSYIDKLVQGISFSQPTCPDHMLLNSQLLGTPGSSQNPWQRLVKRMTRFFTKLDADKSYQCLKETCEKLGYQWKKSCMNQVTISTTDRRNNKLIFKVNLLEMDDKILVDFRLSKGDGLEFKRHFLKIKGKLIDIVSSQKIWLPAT
T15 sequence (Q9HBH9 whole entry): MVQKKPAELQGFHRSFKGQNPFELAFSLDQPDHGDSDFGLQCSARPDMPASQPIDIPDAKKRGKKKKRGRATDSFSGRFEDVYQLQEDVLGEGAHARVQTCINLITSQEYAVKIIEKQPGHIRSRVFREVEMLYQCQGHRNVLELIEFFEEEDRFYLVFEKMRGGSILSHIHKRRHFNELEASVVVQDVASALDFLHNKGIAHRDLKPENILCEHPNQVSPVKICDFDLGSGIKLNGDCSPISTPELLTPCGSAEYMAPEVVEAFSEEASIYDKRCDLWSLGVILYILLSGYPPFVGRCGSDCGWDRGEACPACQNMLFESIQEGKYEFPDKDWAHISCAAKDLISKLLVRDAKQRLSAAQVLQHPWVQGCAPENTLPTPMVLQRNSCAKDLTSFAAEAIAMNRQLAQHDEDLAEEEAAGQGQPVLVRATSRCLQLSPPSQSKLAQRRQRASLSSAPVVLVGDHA

percent of control kinase binding to immobilized ligand at 3 µM [1]: 94% | percent of control kinase binding to immobilized ligand at 3 µM [2]: 100% | percent of control kinase binding to immobilized ligand at 3 µM [3]: 100% | percent of control kinase binding to immobilized ligand at 3 µM [4]: 92% | percent of control kinase binding to immobilized ligand at 3 µM [5]: 100% | percent of control kinase binding to immobilized ligand at 3 µM [6]: 82% | percent of control kinase binding to immobilized ligand at 3 µM [7]: 63% | percent of control kinase binding to immobilized ligand at 3 µM [8]: 84% | percent of control kinase binding to immobilized ligand at 3 µM [9]: 75% | percent of control kinase binding to immobilized ligand at 3 µM [10]: 100% | percent of control kinase binding to immobilized ligand at 3 µM [11]: 100% | percent of control kinase binding to immobilized ligand at 3 µM [12]: 100% | percent of control kinase binding to immobilized ligand at 3 µM [13]: 95% | percent of control kinase binding to immobilized ligand at 3 µM [14]: 100% | percent of control kinase binding to immobilized ligand at 3 µM [15]: 85% | percent of control kinase binding to immobilized ligand at 3 µM [16]: 92% | percent of control kinase binding to immobilized ligand at 3 µM [17]: 100% | percent of control kinase binding to immobilized ligand at 3 µM [18]: 66% | percent of control kinase binding to immobilized ligand at 3 µM [19]: 87% | percent of control kinase binding to immobilized ligand at 3 µM [20]: 100% | percent of control kinase binding to immobilized ligand at 3 µM [21]: 99%
SMILES: CN(C)CCNC(=O)c1ccc(-c2ccc(-c3ccc(Cl)cc3)n2-c2ccccc2C(F)(F)F)cc1 (single isomer, unassigned) [Atropisomer A-2, 4-[5-(4-chlorophenyl)-1-[2-(trifluoromethyl)phenyl]pyrrol-2-yl]-N-[2-(dimethylamino)ethyl]benzamide]
